Where “and” joins values, the source holds several entries; their conditions need not be identical. Equal values may be shown once.
Experiments:
[1] = system: Ipomoea; assay: Herbicidal action before plant emergence (pre-emergence action); assay type: in vivo; parameters: key: 1=complete damage; 9=no effect; Score figures of 1 to 4 (in particular 1 to 3) signify a good to very good herbicidal action; conditions: 2000 g a.i./ha sprayed immediately after sowing; evaluated after 3 weeks; nine-level key (1=complete damage, 9=no effect)
Description: (§1) Monocotyledonous and dicotyledonous test plants are sown in standard soil in plastic pots. Immediately after sowing, the test substances are sprayed on as aqueous suspensions (prepared from a 25% strength wettable powder (Example F3, b) in accordance with WO 97/34485) or as emulsions (prepared from a 25% strength emulsion concentrate (Example F1, c) in accordance with WO 97/34485), corresponding to a dosage of 2 kg of a.i./ha (500 l of water/ha). The test plants are subsequently grown in the greenhouse under optimal conditions. After a test period of 3 weeks, the experiment is evaluated using a nine-level key (1=complete damage, 9=no effect). Score figures of 1 to 4 (in particular 1 to 3) signify a good to very good herbicidal action.
(§2) Test plants: Lolium, Setaria, Sinapis, Solanum, Stellaria, Ipomea.

[2] = system: Stellaria; assay: as above; assay type: in vivo; parameters: key: 1=complete damage; 9=no effect; Score figures of 1 to 4 (in particular 1 to 3) signify a good to very good herbicidal action; conditions: 2000 g a.i./ha sprayed immediately after sowing; evaluated after 3 weeks; nine-level key (1=complete damage, 9=no effect)
Description: as §1, §2

[3] = system: Setaria; assay: as above; assay type: in vivo; parameters: key: 1=complete damage; 9=no effect; Score figures of 1 to 4 (in particular 1 to 3) signify a good to very good herbicidal action; conditions: 2000 g a.i./ha sprayed immediately after sowing; evaluated after 3 weeks; nine-level key (1=complete damage, 9=no effect)
Description: as §1, §2

[4] = system: Solanum; assay: as above; assay type: in vivo; parameters: key: 1=complete damage; 9=no effect; Score figures of 1 to 4 (in particular 1 to 3) signify a good to very good herbicidal action; conditions: 2000 g a.i./ha sprayed immediately after sowing; evaluated after 3 weeks; nine-level key (1=complete damage, 9=no effect)
Description: as §1, §2

[5] = system: Sinapis; assay: as above; assay type: in vivo; parameters: key: 1=complete damage; 9=no effect; Score figures of 1 to 4 (in particular 1 to 3) signify a good to very good herbicidal action; conditions: 2000 g a.i./ha sprayed immediately after sowing; evaluated after 3 weeks; nine-level key (1=complete damage, 9=no effect)
Description: as §1, §2

[6] = system: Lolium; assay: as above; assay type: in vivo; parameters: key: 1=complete damage; 9=no effect; Score figures of 1 to 4 (in particular 1 to 3) signify a good to very good herbicidal action; conditions: 2000 g a.i./ha sprayed immediately after sowing; evaluated after 3 weeks; nine-level key (1=complete damage, 9=no effect)
Description: as §1, §2

[7] = system: Ipomoea; assay: Post-emergence herbicidal action; assay type: in vivo; parameters: key: 1=complete damage; 9=no effect; Score figures of 1 to 4 (in particular 1 to 3) signify a good to very good herbicidal action; conditions: dose 2000 g a.i./ha; sprayed at 4- to 6-leaf stage; evaluated after approximately 18 days; nine-level key (1=complete damage, 9=no effect)
Protocol: (§3) Monocotyledonous and dicotyledonous test plants are grown in the greenhouse in plastic pots containing standard soil and, in the 4- to 6-leaf stage, sprayed with an aqueous suspension of the test substances of the formula I, prepared from a 25% strength wettable powder (Example F3, b) in accordance with WO 97/34485) or with an emulsion of the test substances of the formula I, prepared from a 25% strength emulsion concentrate (Example F1, c) in accordance with WO 97/34485), corresponding to a dosage of 2 kg/ a.i./ha (500 l of water/ha). The test plants are subsequently grown on in the greenhouse under optimal conditions. After a test period of approximately 18 days, the experiment is evaluated using a nine-level key (1=complete damage, 9=no effect). Score figures of 1 to 4 (in particular 1 to 3) signify a good to very good herbicidal action.
as §2

[8] = system: Stellaria; assay: Post-emergence herbicidal action; assay type: in vivo; parameters: key: 1=complete damage; 9=no effect; Score figures of 1 to 4 (in particular 1 to 3) signify a good to very good herbicidal action; conditions: dose 2000 g a.i./ha; sprayed at 4- to 6-leaf stage; evaluated after approximately 18 days; nine-level key (1=complete damage, 9=no effect)
Protocol: as §3, §2

[9] = system: Setaria; assay: Post-emergence herbicidal action; assay type: in vivo; parameters: key: 1=complete damage; 9=no effect; Score figures of 1 to 4 (in particular 1 to 3) signify a good to very good herbicidal action; conditions: dose 2000 g a.i./ha; sprayed at 4- to 6-leaf stage; evaluated after approximately 18 days; nine-level key (1=complete damage, 9=no effect)
Protocol: as §3, §2

[10] = system: Solanum; assay: Post-emergence herbicidal action; assay type: in vivo; parameters: key: 1=complete damage; 9=no effect; Score figures of 1 to 4 (in particular 1 to 3) signify a good to very good herbicidal action; conditions: dose 2000 g a.i./ha; sprayed at 4- to 6-leaf stage; evaluated after approximately 18 days; nine-level key (1=complete damage, 9=no effect)
Protocol: as §3, §2

[11] = system: Sinapis; assay: Post-emergence herbicidal action; assay type: in vivo; parameters: key: 1=complete damage; 9=no effect; Score figures of 1 to 4 (in particular 1 to 3) signify a good to very good herbicidal action; conditions: dose 2000 g a.i./ha; sprayed at 4- to 6-leaf stage; evaluated after approximately 18 days; nine-level key (1=complete damage, 9=no effect)
Protocol: as §3, §2

[12] = system: Lolium; assay: Post-emergence herbicidal action; assay type: in vivo; parameters: key: 1=complete damage; 9=no effect; Score figures of 1 to 4 (in particular 1 to 3) signify a good to very good herbicidal action; conditions: dose 2000 g a.i./ha; sprayed at 4- to 6-leaf stage; evaluated after approximately 18 days; nine-level key (1=complete damage, 9=no effect)
Protocol: as §3, §2

Row | Structure (SMILES) | Pre-emergence action, score, test plant Ipomoea [1] | Pre-emergence action, score, test plant Stellaria [2] | Pre-emergence action, score, test plant Setaria [3] | Pre-emergence action, score, test plant Solanum [4] | Pre-emergence action, score, test plant Sinapis [5] | Pre-emergence action, score, test plant Lolium [6] | melting point | Post-emergence action, score, Ipomoea [7] | Post-emergence action, score, Stellaria [8] | Post-emergence action, score, Setaria [9] | Post-emergence action, score, Solanum [10] | Post-emergence action, score, Sinapis [11] | Post-emergence action, score, Lolium [12]
1 | Cn1c(C(F)(F)F)cc(=O)n(-c2nc(O)c(Cl)cc2F)c1=O [1.002, 1-(2-hydroxy-3-chloro-5-fluoropyridine-6-yl)-3-methyl-4-trifluoromethylpyrimidine-2,6-dione] | 1 | 5 | 1 | 1 | 1 | 7 | 200 to 202 °C | 1 | 5 | 5 | 1 | 2 | 6
2 | N#Cc1cc(F)c(N2C(=O)C3CCCCN3C2=O)nc1Cl (stereo not drawn) [Example H8, 2-(3-fluoro-6-chloro-5-cyano-2-pyridyl)tetrahydroimidazo[1,5-a]pyridine-1,3-dione] | – | – | – | – | – | – | 192 to 193 °C | – | – | – | – | – | –
3 | COC(=O)C(C)Oc1nc(-n2c(=O)cc(C(F)(F)F)n(C)c2=O)c(F)cc1Cl (stereo not drawn) [1.048] | 1 | 1 | 1 | 1 | 1 | 1 | – | 1 | 1 | 1 | 1 | 1 | 1
4 | Cn1c(C(F)(F)F)cc(=O)n(-c2nc(Cl)c(Cl)cc2F)c1=O [1.396] | 1 | 1 | 1 | 1 | 1 | 1 | – | 1 | 3 | 3 | 1 | 1 | 3
5 | CCOC(=O)COc1nc(-n2c(=O)cc(C(F)(F)F)n(C)c2=O)c(F)cc1Cl [1.047] | 1 | 7 | 1 | 1 | 1 | 5 | – | 1 | 4 | 1 | 1 | 1 | 3
6 | C#CCOc1nc(-n2c(=O)cc(C(F)(F)F)n(C)c2=O)c(F)cc1Cl [1.022, 1-(2-propargyloxy-3-chloro-5-fluoropyridine-6-yl)-3-methyl-4-trifluoromethylpyrimidine-2,6-dione] | 1 | 1 | 1 | 1 | 1 | 1 | 121 to 122 °C and 119 to 121 °C | 1 | 1 | 1 | 1 | 1 | 1
7 | C=CCOC(=O)C(C)(C)Oc1nc(-n2c(=O)cc(C(F)(F)F)n(C)c2=O)c(F)cc1Cl [1.402] | 4 | 1 | 1 | 1 | 1 | 1 | – | 1 | 1 | 1 | 1 | 1 | 1
8 | CCOc1nc(-n2c(=O)cc(C(F)(F)F)n(C)c2=O)c(F)cc1Cl [1.017] | 1 | 1 | 1 | 1 | 1 | 1 | – | 1 | 1 | 1 | 1 | 1 | 1

From patent publication US6380134B1, “N-pyridyl herbicide compounds” (Syngenta Crop Protection, Inc., priority 1998, dated 2002)
